{"source": "patent US20150342195A1", "about": "“ANTI-MICROBIAL COMPOSITIONS, PREPARATIONS, METHODS, AND USES” (MYCO SCIENCES LIMITED, priority 2014, published 2015)", "key": {"Magnaporthe oryzae": {"tested_on": "Magnaporthe oryzae", "assay": "microbe, parasite or virus in culture", "assay_type": "cell-based", "details": "for Average diameter of fungal growth: Cu—Zn#12 0%, plug subtracted"}, "Fusarium graminearum": {"tested_on": "Fusarium graminearum", "assay": "microbe, parasite or virus in culture", "assay_type": "cell-based", "details": "for IC50: Fusarium graminearum"}, "Botrytis cinerea": {"tested_on": "Botrytis cinerea", "assay": "Fungal growth inhibition assay (hyphal growth diameter on PDA)", "assay_type": "cell-based", "details": "for IC50: Botrytis cinerea"}, "Rhizoctonia solani": {"tested_on": "Rhizoctonia solani", "assay": "Fungal growth inhibition assay (hyphal growth diameter on PDA)", "assay_type": "cell-based", "details": "for IC50: Rhizoctonia solani"}, "Alternaria alternata": {"tested_on": "Alternaria alternata", "assay": "Fungal growth inhibition assay (hyphal growth diameter on PDA)", "assay_type": "cell-based", "details": "for IC50: Alternaria alternata"}, "Ustilago maydis": {"tested_on": "Ustilago maydis", "assay": "Fungal growth inhibition assay (hyphal growth diameter on PDA)", "assay_type": "cell-based", "details": "for IC50: Mycosarcoma maydis"}, "Aspergillus niger": {"tested_on": "Aspergillus niger", "assay": "Fungal growth inhibition assay (hyphal growth diameter on PDA)", "assay_type": "cell-based", "details": "for IC50: Aspergillus niger"}, "[1]": {"tested_on": "Mycosphaerella graminicola", "assay": "Fungal growth inhibition assay (hyphal growth diameter on PDA)", "assay_type": "cell-based", "description": "The fungal strains used in these studies are described in TABLE 2. The strains were routinely cultured in 9 centimeter Petri dishes containing 10 milliliters of potato dextrose agar (PDA) at room temperature (22° C.) apart from U. maydis (28° C.).\n(§1) To assess the effects of compositions on fungal growth, 10 microliters of the test compositions diluted in sterile distilled water were placed in the wells of a 12-well tissue culture plate and 1 milliliter of liquid PDA was added by pipette to each well. Where multiple samples were added to each well, the 10 microliter drops were kept separate until they were mixed by the addition of hot liquid PDA and the plate was then agitated to evenly distribute the test composition(s) evenly through the agar (distilled water was used as vehicle control) and then the agar was allowed to set. […] To assess the effects of compositions on fungal growth in all experiments, the diameter of the hyphal growth was measured twice at a 90° angle using a ruler and the average diameter in millimeters was calculated. If no fungal growth could be detected by eye, the cultures were observed by phase microscopy (40×) to confirm that there was no growth (NG)."}, "plant pathogenic fungi": {"tested_on": "plant pathogenic fungi", "assay": "organism not typed", "assay_type": "cell-based", "details": "for fungal growth with KS: 1000 milligrams/liter KS"}, "Trichophyton rubrum": {"tested_on": "Trichophyton rubrum", "assay": "Fungal growth inhibition assay with Trichophyton rubrum", "assay_type": "cell-based", "description": "as §1, with “set. For most strains (see TABLE 2), plugs of agar containing fungal hyphae (2 to 3 millimeters in diameter) from the edge of an established fungal culture were carefully cut out using a scalpel and inserted into holes cut in the centre of the agar in each well of the 12-well plate. With B. cinerea and U. maydis, mature cultures were washed with 3 ml of sterile distilled water and the spore suspensions obtained were adjusted to O.D. (at 600 nanometers) of 1.0 and 1.5, respectively. A small hole (˜1 millimeter) was made in the center of the PDA in each well with a yellow pipette tip and 1.5 microliters of spore suspension was carefully pipetted into the hole.” for “set.”\nA clinical isolate of T. rubrum (strain 7107996; Phylum: Acomycota) was kindly provided by Dr. Richard Barton, Leeds University, UK. The growth assays with T. rubrum were as described in EXAMPLE 1, except this strain was cultured at 33° C. on PDA for 6 or 7 days when growth was assessed. T. rubrum cultures were maintained on Sabouraud dextrose agar at 33° C.\nFIG. 8 is a graph depicting the effects of selected compositions and compounds on the growth of Trichophyton rubrum. The culture period was 7 days. Growth in the control cultures was 20±0 millimeters (mean±SD for 2 experiments)."}, "[2]": {"tested_on": "Pseudomonas syringae (pv. tomato DC3000)", "assay": "Bacterial microplate culture (resazurin MIC)", "assay_type": "cell-based", "details": "Pseudomonas syringae; 24 hours at 28° C.; highest concentration 400 mg/L (1% of stock solutions); read-out: MIC"}, "[3]": {"tested_on": "Ralstonia solanacearum (strain PSS4 from tomato)", "assay": "microbe, parasite or virus in culture", "assay_type": "cell-based", "details": "Ralstonia solanacearum, 24 h"}, "[4]": {"tested_on": "Xanthomonas oryzae (strain Gx0372)", "assay": "microbe, parasite or virus in culture", "assay_type": "cell-based", "details": "Xanthomonas oryzae, 24 h"}, "[5]": {"tested_on": "Xanthomonas campestris (strain Race 5 from brassica)", "assay": "Bacterial microplate culture (resazurin MIC)", "assay_type": "cell-based", "details": "Xanthomonas campestris; 24 hours at 28° C.; highest concentration 400 mg/L (1% of stock solutions); read-out: MIC"}, "[6]": {"tested_on": "4 plant pathogenic bacterial strains", "details": "KS at ≧10,000 milligrams/liter, any strain"}, "[7]": {"details": "read-out: Potassium sorbate IC50, mean ± SD, PDA"}, "[8]": {"details": "read-out: Potassium sorbate IC50, single experiments, PDA"}}, "note": "Read-outs that look alike come from different tables or passages of the source."}
{"smiles": "C/C=C/C=C/C(=O)[O-].[K+]", "note": "[Potassium sorbate]", "values": [{"measurement": "Average diameter of fungal growth", "setting": "Magnaporthe oryzae; KS 10 mg/L, PDA", "result": 17, "unit": "mm"}, {"measurement": "Average diameter of fungal growth", "setting": "Magnaporthe oryzae; KS 30 mg/L, PDA", "result": 17, "unit": "mm"}, {"measurement": "Average diameter of fungal growth", "setting": "Magnaporthe oryzae; KS 100 mg/L, PDA", "result": 15, "unit": "mm"}, {"measurement": "Average diameter of fungal growth", "setting": "Magnaporthe oryzae; KS 150 mg/L, PDA", "result": 14, "unit": "mm"}, {"measurement": "Average diameter of fungal growth", "setting": "Magnaporthe oryzae; KS 300 mg/L, PDA", "result": 9, "unit": "mm"}, {"measurement": "effect on fungal growth alone", "setting": "Magnaporthe oryzae; KS 10 milligrams/liter alone", "result": "no effect"}, {"measurement": "Minimum KS concentration required for NG", "setting": "Magnaporthe oryzae; PDA, NG = no fungal growth", "result": 1000, "unit": "mg/L"}, {"measurement": "IC50", "setting": "Magnaporthe oryzae; Pyricularia oryzae, read-out: Potassium sorbate IC50, mean ± SD, PDA", "result": 140, "unit": "µg/mL"}, {"measurement": "KS concentration that completely inhibited growth", "setting": "Magnaporthe oryzae; in the presence of […] Cu—Zn#12", "result": 30, "unit": "milligrams/liter"}, {"measurement": "times lower KS concentration for complete inhibition", "setting": "Magnaporthe oryzae; with […] Cu—Zn#12 versus KS alone", "result": 33, "unit": "times"}, {"measurement": "IC50", "setting": "Fusarium graminearum; [7]", "result": 185, "unit": "µg/mL"}, {"measurement": "IC50", "setting": "Fusarium graminearum; [8]", "result": 150, "unit": "µg/mL"}, {"measurement": "Potassium sorbate IC50, single experiments", "setting": "Fusarium graminearum; PDA", "result": 220, "unit": "mg/L"}, {"measurement": "Minimum KS concentration required for NG", "setting": "Fusarium graminearum; PDA, NG = no fungal growth", "result": 1000, "unit": "mg/L"}, {"measurement": "IC50", "setting": "Botrytis cinerea; [7]", "result": 175, "unit": "µg/mL"}, {"measurement": "IC50", "setting": "Botrytis cinerea; [8]", "result": 200, "unit": "µg/mL"}, {"measurement": "Potassium sorbate IC50, single experiments", "setting": "Botrytis cinerea; PDA", "result": 150, "unit": "mg/L"}, {"measurement": "Minimum KS concentration required for NG", "setting": "Botrytis cinerea; PDA, NG = no fungal growth", "result": 1000, "unit": "mg/L"}, {"measurement": "Potassium sorbate IC50, single experiments", "setting": "Rhizoctonia solani; PDA", "result": 100, "unit": "mg/L"}, {"measurement": "Minimum KS concentration required for NG", "setting": "Rhizoctonia solani; PDA, NG = no fungal growth", "result": 1000, "unit": "mg/L"}, {"measurement": "IC50", "setting": "Rhizoctonia solani; [7]", "result": 91, "unit": "µg/mL"}, {"measurement": "IC50", "setting": "Rhizoctonia solani; [8]", "result": 73, "unit": "µg/mL"}, {"measurement": "IC50", "setting": "Alternaria alternata; [7]", "result": 190, "unit": "µg/mL"}, {"measurement": "IC50", "setting": "Alternaria alternata; [8]", "result": 180, "unit": "µg/mL"}, {"measurement": "Potassium sorbate IC50, single experiments", "setting": "Alternaria alternata; PDA", "result": 200, "unit": "mg/L"}, {"measurement": "Minimum KS concentration required for NG", "setting": "Alternaria alternata; PDA, NG = no fungal growth", "result": 300, "unit": "mg/L"}, {"measurement": "IC50", "setting": "Ustilago maydis; read-out: KS IC50, PDA", "result": 0.077, "unit": "µg/mL"}, {"measurement": "IC50", "setting": "Ustilago maydis; [7]", "result": 77, "unit": "µg/mL"}, {"measurement": "IC50", "setting": "Ustilago maydis; [8]", "result": 74, "unit": "µg/mL"}, {"measurement": "Potassium sorbate IC50, single experiments", "setting": "Ustilago maydis; PDA", "result": 80, "unit": "mg/L"}, {"measurement": "Minimum KS concentration required for NG", "setting": "Ustilago maydis; PDA, NG = no fungal growth", "result": 300, "unit": "mg/L"}, {"measurement": "IC50", "setting": "Aspergillus niger; [7]", "result": 91, "unit": "µg/mL"}, {"measurement": "IC50", "setting": "Aspergillus niger; [8]", "result": 82, "unit": "µg/mL"}, {"measurement": "Potassium sorbate IC50, single experiments", "setting": "Aspergillus niger; PDA", "result": 100, "unit": "mg/L"}, {"measurement": "Minimum KS concentration required for NG", "setting": "Aspergillus niger; PDA, NG = no fungal growth", "result": 300, "unit": "mg/L"}, {"measurement": "Minimum KS concentration required for NG", "setting": "[1]; NG = no fungal growth", "result": 300, "unit": "mg/L"}, {"measurement": "IC50", "setting": "[1]; Zymoseptoria tritici, read-out: Potassium sorbate IC50, single experiment", "result": 150, "unit": "µg/mL"}, {"measurement": "number of fungal strains whose growth was completely inhibited", "setting": "plant pathogenic fungi; 300 milligrams/liter KS, eight strains tested", "result": 4, "unit": "strains"}, {"measurement": "fungal growth with KS", "setting": "plant pathogenic fungi; all eight fungal strains", "result": "completely inhibited"}, {"measurement": "fungal growth with KS", "setting": "plant pathogenic fungi; five fungal strains of FIG. 2", "result": "no growth"}, {"measurement": "IC50", "setting": "plant pathogenic fungi; read-out: KS IC50 range on plant pathogenic fungi", "result": "77 to 190", "unit": "µg/mL"}, {"measurement": "inhibition of fungal growth", "setting": "Trichophyton rubrum; KS 100 milligrams/liter on its own", "result": 6, "unit": "%"}, {"measurement": "KS concentration required for complete inhibition of fungal growth", "setting": "Trichophyton rubrum; KS alone (FIG. 9)", "result": 300, "unit": "milligrams/liter"}, {"measurement": "T. rubrum IC50 values: % of stock solution", "setting": "Trichophyton rubrum; PDA, 33° C., 7 days", "result": "0.017 % of stock solution"}, {"measurement": "IC50", "setting": "Trichophyton rubrum; Trichophyton rubrum, 168 h, PDA, 33° C., 7 days, Cu—Zn#12: 50% each of elemental copper and zinc, read-out: T. rubrum IC50 values: Concentration", "result": 17, "unit": "µg/mL"}, {"measurement": "MIC", "setting": "[2]", "result": "> 10000", "unit": "µg/mL"}, {"measurement": "MIC", "setting": "[3]", "result": "> 10000", "unit": "µg/mL"}, {"measurement": "MIC", "setting": "[4]", "result": "> 10000", "unit": "µg/mL"}, {"measurement": "MIC", "setting": "[5]", "result": "> 10000", "unit": "µg/mL"}, {"measurement": "effect on bacterial growth", "setting": "[6]", "result": "no effect"}]}
